Experimental data from patent US20200009173A1, “TRIAZOLE-CONTAINING MACROLIDES AND OPHTHALMIC USES THEREFOR” (Tetard, Inc., priority 2017, published 2020).
In brackets after ≈: the same amount, converted by molar mass. Read-outs that look alike come from different tables or passages of the source.

How the values were obtained:
[1] = system: Streptococcus pneumoniae; experiment: MIC, Streptococcus pneumoniae (150 strains); format: cell-based
[2] = system: Chlamydophila pneumoniae; experiment: MIC, Chlamydophila pneumoniae (10 strains); format: cell-based
[3] = system: Mycoplasma pneumoniae; experiment: MIC, Mycoplasma pneumoniae (38 strains); format: cell-based
[4] = system: S. pneumoniae; experiment: MICs of solithromycin and comparator drugs, S. pneumoniae (30 species); format: cell-based
Excerpt: (§1) EXAMPLE. The formulations described herein show overall higher potency against ocular pathogens than commercial standards.
(§2) MICs (μg/ml) of Solithromycin and Comparator Drugs against Bacterial Species

[5] = system: MSSA; experiment: MICs of solithromycin and comparator drugs, MSSA (31 species); format: cell-based
Excerpt: as §1, §2

[6] = system: MSRA; experiment: MICs of solithromycin and comparator drugs, MSRA (30 species); format: cell-based
Excerpt: as §1, §2

[7] = system: S. epidermidis; experiment: MICs of solithromycin and comparator drugs, S. epidermidis (30 species); format: cell-based
Excerpt: as §1, §2

[8] = system: Staphylococcus aureus; experiment: MIC, Staphylococcus aureus; format: cell-based; details: N = 201
[9] = system: CA-MRSA; experiment: MIC, CA-MRSA; format: cell-based, Staphylococcus aureus; details: N = 30
[10] = system: Haemophilus parainfluenzae; experiment: MIC, Haemophilus parainfluenzae; format: cell-based; details: N = 11
[11] = system: Listeria monocytogenes; experiment: MIC, Listeria monocytogenes; format: cell-based; details: N = 10
[12] = system: Moraxella catarrhalis; experiment: MIC, Moraxella catarrhalis; format: cell-based; details: N = 21
[13] = system: Neisseria gonorrhoeae; experiment: MIC, Neisseria gonorrhoeae; format: cell-based; details: N = 34
[14] = system: Peptostreptococcus spp.; experiment: MIC, Peptostreptococcus spp.; format: cell-based; details: N = 10
[15] = Corneal permeability, Franz-Cell Diffusion Apparatus; format: in vitro ADME; details: bovine (calf), pH 7
Protocol: EXAMPLE. Corneal Permeability. Corneal permeability is determined using conventional protocols. Briefly, corneal permeability is determined on freshly excised bovine (calf) cornea using a Franz-Cell Diffusion Apparatus generally with n=3/group. Freshly excised calf cornea are stored until use in hydrating solution containing glutathione and buffer. The Apparatus includes a donor chamber on the top where a predetermined volume of the formulation is pipetted and a jacketed receptor cell with a sampling side arm. The joint between the donor and receptor cell is upward-convex, mimicking the shape of the cornea. The corneal membrane is placed on the ball joint with the cornea facing the donor chamber. The Apparatus is clamped to secure the cells with the donor and receptor chambers aligned. […] The volume is recorded. […] Test samples are added in rapid succession by depositing 200 μL of the formulation into each donor chamber using a calibrated pipet and the times recorded. […] Flux can be calculated by the formula: J=Q/(A·t), where Q is the quantity (micrograms) of compound traversing the membrane in time t (minutes), and A is the area of exposed membrane in cm^2. […] After completion of the diffusion, corneas are weighed to determine the quantity of bound test compound in the cornea, and the corneal thicknesses of each cornea is measured at the point of diffusion (the center) using Vernier calipers. […]

[16] = log P; format: physicochemical
Protocol: Formulated compounds are tested for their transverse diffusive ability through the membrane. Diffusion through biological membranes is directly correlated to the formulation excipients, its physical state (suspension, solution, emulsion, etc.) and its log P. […] For compounds with log P>3, the compound typically permeates the lipid epithelium of the cornea, only to be hindered by the hydrophilic stroma. For an indication like blepharitis, high corneal concentrations achieved with repeat dosing will result in a drug depot, acting like a sustained release system.

[17] = speed of uptake and ultimate tissue concentration

Compound: CC[C@H]1OC(=O)[C@@](C)(F)C(=O)[C@H](C)[C@@H](O[C@@H]2O[C@H](C)C[C@H](N(C)C)[C@H]2O)[C@](C)(OC)C[C@@H](C)C(=O)[C@H](C)[C@H]2N(CCCCn3cc(-c4cccc(N)c4)nn3)C(=O)O[C@]12C [CEM-101, solithromycin]
- MIC90 ([1]; N = 150): 250 ng/mL (≈ 296 nM)
- MIC Range ([1]; N = 150): ≤8 to 500 ng/mL
- MIC90 ([1]; Streptococcus pneumoniae, 150 strains, read-out: MIC90): 250 ng/mL (≈ 296 nM)
- MIC50 ([1]; Streptococcus pneumoniae, N = 150): 15 ng/mL (≈ 17.8 nM)
- MIC90 ([2]; Chlamydia pneumoniae, 10 strains, read-out: MIC90): 250 ng/mL (≈ 296 nM)
- MIC50 ([2]; Chlamydia pneumoniae, N = 10): 250 ng/mL (≈ 296 nM)
- MIC90 ([2]; N = 10): 250 ng/mL (≈ 296 nM)
- MIC Range ([2]; N = 10): 250 to 1000 ng/mL
- MIC90 ([3]; Mycoplasma, 38 strains, read-out: MIC90): 0.125 ng/mL (≈ 0.148 nM)
- MIC50 ([3]; Mycoplasma, N = 38): 0.032 ng/mL (≈ 0.0379 nM)
- MIC90 ([3]; N = 38): 0.125 ng/mL (≈ 0.148 nM)
- MIC Range ([3]; N = 38): ≤6.3e-05 to 500 ng/mL
- I (intermediate susceptibility) [4]: 0%
- MIC Range [4]: ≤0.001-0.25 ^ μg/ml
- NS (not susceptible) [4]: 0%
- S (susceptible) [4]: 100%
- MIC50 ([4]; Streptococcus pneumoniae): 2 ng/mL (≈ 2.37 nM)
- MIC90 ([4]; Streptococcus pneumoniae): 120 ng/mL (≈ 142 nM)
- I (intermediate susceptibility) [5]: 0%
- MIC Range [5]: 4 to 64000 ng/mL
- NS (not susceptible) [5]: 6%
- S (susceptible) [5]: 94%
- MIC50 ([5]; Staphylococcus aureus, MSSA): 15 ng/mL (≈ 17.8 nM)
- MIC90 ([5]; Staphylococcus aureus, MSSA): 30 ng/mL (≈ 35.5 nM)
- MIC50 [6]: 30 ng/mL (≈ 35.5 nM)
- MIC90 [6]: 64000 ng/mL (≈ 75700 nM)
- I (intermediate susceptibility) ([6]; 30 species): 0%
- NS (not susceptible) ([6]; 30 species): 30%
- S (susceptible) ([6]; 30 species): 70%
- I (intermediate susceptibility) [7]: 3%
- NS (not susceptible) [7]: 17%
- S (susceptible) [7]: 80%
- MIC50 ([7]; Staphylococcus epidermidis): 15 ng/mL (≈ 17.8 nM)
- MIC90 ([7]; Staphylococcus epidermidis): 32000 ng/mL (≈ 37900 nM)
- MIC50 [8]: 120 ng/mL (≈ 142 nM)
- MIC90 [8]: > 16000 ng/mL
- MIC Range [9]: 60 to 120 ng/mL
- MIC50 ([9]; Staphylococcus aureus, MRSA): 120 ng/mL (≈ 142 nM)
- MIC90 ([9]; Staphylococcus aureus, MRSA): 120 ng/mL (≈ 142 nM)
- MIC50 ([10]; Haemophilus parainfluenzae): 2000 ng/mL (≈ 2370 nM)
- MIC90 ([10]; Haemophilus parainfluenzae): 2000 ng/mL (≈ 2370 nM)
- MIC Range [10]: 1000 to 2000 ng/mL
- MIC50 ([11]; Listeria monocytogenes): 30 ng/mL (≈ 35.5 nM)
- MIC90 ([11]; Listeria monocytogenes): 30 ng/mL (≈ 35.5 nM)
- MIC Range [11]: 30 ng/mL (≈ 35.5 nM)
- MIC50 ([12]; Moraxella catarrhalis): 120 ng/mL (≈ 142 nM)
- MIC90 ([12]; Moraxella catarrhalis): 120 ng/mL (≈ 142 nM)
- MIC Range [12]: ≤8 to 500 ng/mL
- MIC Range [13]: 30 to 250 ng/mL
- MIC50 ([13]; Neisseria gonorrhoeae): 60 ng/mL (≈ 71 nM)
- MIC90 ([13]; Neisseria gonorrhoeae): 120 ng/mL (≈ 142 nM)
- MIC Range [14]: ≤0.03-0.25^ μg/mL
- MIC50 ([14]; Peptostreptococcus): 60 ng/mL (≈ 71 nM)
- MIC90 ([14]; Peptostreptococcus): 250 ng/mL (≈ 296 nM)
- concentration in receptor fluid (therapeutically effective) ([15]; 1 h): ≥ 1000 ng/mL
- time after administration at which drug was observed in receptor fluid [15]: ≤ 1 h
- logP [16]: 4.2
- tissue distribution relative to AZI [17]: 10 fold
